Structures are written as SMILES.

Data set [1] can be described thus: Dissolution rate of drug into water, solid dispersion with low molecular weight chitosan C-5 versus drug alone (Example 4). It is filed as physicochemical. Conditions: drug alone without additive; 10 to 30 mg in 60 ml, 57 rpm, water 37° C. The procedure: Each 3 parts by weight of the chitosan products C-0 to C-5 was added to 1 part by weight of flurbiprofen (denoted sometimes hereinafter as FP) and the mixture kneaded with the addition of water in an amount of 2-fold of that of the chitosan product for 1 hour. The kneaded mixture was dried under a reduced pressure at room temperature for 48 hours. A fraction of the particles that passed through 100-mesh standard sieve was employed as the solid dispersion. For each of these solid dispersions, the dissolution rate of FP into water at 37° C. was observed by the procedure given below:
500 ml of water were charged in a dissolution rate measuring device (made by Toyama Sangyo Co., Ltd.) maintained at 37° C. and thereto was further added each of the above solid dispersions in an amount corresponding to 40 mg as FP and the mixture was agitated at 91 rpm. The agitated mixture was sampled each in an amount of 3 ml at a regular time interval with a pipette fitted with a cotton plug. Each sample was filtered through a 0.45 μm membrane filter and the FP concentration of the filtrate was determined after extraction with chloroform.
The rate of dissolution was determined for drug compositions having the low molecular weight chitosan C-5 obtained in Reference Example 1, by observing the concentration of the drug in the same manner as in Example 1 at a regular time interval except that the drug was charged in an amount within the range of from 10 to 30 mg in 60 ml of solution and the agitation was effected at 57 rpm. The ratio of the dissolved amount of drug to the total charged amount of the drug was calculated. Results are summarized in FIGS. 5(A)- 5(G) in a corresponding graph. The experimental results for flurbiprofen are given here again.
The average dissolution time calculated from the rate of dissolution for each drug is recited in Table 3. The calculation of the average dissolution time was made basing on the method given in "Chem. Pharm. Bull.", 30, 1088 (1982).

Data set [2] in a line: Solubility of drugs in aqueous solutions of low molecular weight chitosan C-5 (Example 3). Conditions: aqueous solution of C-5, varying concentration, 25° C., 10 days. The protocol:
Each 5 mg of vitamin E and vitamin K was accurately weighed (this amount is chosen so as to exceed above the solubility limits of these drugs) and placed in a test tube. […] Each of the solutions which reached dissolution equilibrium was sampled with a pippette fitted with a cotton plug. The sample was filtered through a 0.45 μm membrane filter and the concentration of vitamin E or vitamin K was determined by means of UV-determination after extraction with chloroform.

Data set [3] in a line: Wetting contact angle of water drops on tablet surface (Example 7). The class given is physicochemical. The settings on record: tablet 2 cm diameter, 50 μl water drop. The protocol:
Examination was effected for the samples of the solid dispersions as obtained in Example 5 and for each drug alone without any additive. The wetting was evaluated by determining the wetting contact angle of water drops on the surface of a tablet having a diameter of 2 cm obtained using an IR tabletting machine with a drop of water of 50 μl.

The conditions of data set [4]: chitosan in a form of a solution of acetic acid salt, versus polyvinylpyrrolidone; cited from earlier work.

Take `C[C@H]1C[C@H]2[C@@H]3CCC4=CC(=O)C=C[C@]4(C)[C@@]3(F)[C@@H](O)C[C@]2(C)[C@@]1(O)C(=O)CO` [Betamethasone, betamethasone]: the “Average Dissolution Time, Drug alone” value in data set [1] was 45.9 min. Moreover, the “dissolution characteristic curve type” value in data set [2] is listed as “dissolution characteristic curve of Bs-type”. As to `C[C@H]1O[C@@H](O[C@H]2[C@@H](O)C[C@H](O[C@H]3[C@@H](O)C[C@H](O[C@H]4CC[C@@]5(C)[C@H](CC[C@@H]6[C@@H]5C[C@@H](O)[C@]5(C)[C@@H](C7=CC(=O)OC7)CC[C@]65O)C4)O[C@@H]3C)O[C@@H]2C)C[C@H](O)[C@@H]1O` [Digoxin, digoxin], the “Average Dissolution Time, Drug alone” value in data set [1] came to 40.9 min. The “solubility of drug with increasing concentration of low molecular weight chitosan” value in data set [2] is “an increase in the solubility of the drug was recognized”.

For the compound `CC(C(=O)O)c1ccc(-c2ccccc2)c(F)c1` (centres unmarked) [Flurbiprofen, flurbiprofen], in data set [1], the “Average Dissolution Time, Drug alone” value worked out at 46.1 min. In addition, in data set [3], the “Wetting Contact Angle, Drug alone” value was determined as 55 °. For the compound `COc1ccc2c(c1)c(CC(=O)O)c(C)n2C(=O)c1ccc(Cl)cc1` [Indomethacin, indomethacin], the “Average Dissolution Time, Drug alone” value in data set [1] came to 24.8 min. Also, in data set [3], the “Wetting Contact Angle, Drug alone” value is 50 °.

In the case of `O=C1NC(=O)C(c2ccccc2)(c2ccccc2)N1` [Phenytoin, phenytoin], the “Average Dissolution Time, Drug alone” value in data set [1] is 35.9 min. Further, the “solubility of drug with increasing concentration of low molecular weight chitosan” value in data set [2] is given as “an increase in the solubility of the drug was recognized”. `C[C@]12C=CC(=O)C=C1CC[C@@H]1[C@@H]2[C@@H](O)C[C@@]2(C)[C@H]1CC[C@]2(O)C(=O)CO` [Prednisolone, prednisolone]: the “Average Dissolution Time, Drug alone” value in data set [1] came to 18.7 min. As for `C[C@]12C=CC(=O)C=C1CC[C@H]1[C@@H]3C[C@@H](O)[C@](O)(C(=O)CO)[C@@]3(C)C[C@H](O)[C@@]12F` [Triamcinolone, triamcinolone], in data set [1], the “Average Dissolution Time, Drug alone” value is 24.3 min. The “Wetting Contact Angle, Drug alone” value in data set [3] came out at 50 °. With `CO[C@@H]1[C@@H](O[C@@H]2O[C@H](C)[C@@H](O[C@H]3C[C@@](C)(O)[C@@H](OC(=O)CC(C)C)[C@H](C)O3)[C@H](N(C)C)[C@H]2O)[C@@H](CC=O)C[C@@H](C)[C@@H](O)/C=C/C=C/C[C@@H](C)OC(=O)C[C@H]1O` [kitasamycin], the “effect of chitosan on the dissolution rate of kitasamycin” value in data set [4] was “lower than that of polyvinylpyrrolidone”.

The record behind these values is US5474989A, “Drug composition” (priority 1988, dated 1995).
